Source: patent US10543212B2, “Substituted amines for treating cardiac diseases” (Cardurion Pharmaceuticals, LLC, priority 2017, dated 2020)

molecular target: T1, Full-length, GST-tagged, human CaMKIIδ (Homo sapiens, UniProt Q13557); assay: CaMKIIδ binding assay (TR-FRET with BODIPY-labeled probe ligand); conditions: CaMKIIδ binding assay, results of Table 2
T1 construct: Full-Length, Glutathione-S-Transferase(GST)-Tagged, Human CaMKIIδ was purchased from Carna Biosciences; purchased Carna Biosciences 02-111
Method in brief: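 Compounds were tested as 4-fold, eight-point series for 1 hr at room temperature, and IC50 was obtained by logistic fitting against a 3 μM parent-compound control. Signal came from displacement of a 300 nM BODIPY ligand from 0.5 nM GST-CaMKIIδ, detected via Tb-anti-GST in calmodulin/Ca2+ (pH 7.6).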

T1 sequence (Q13557 1-478 isoform Q13557-12): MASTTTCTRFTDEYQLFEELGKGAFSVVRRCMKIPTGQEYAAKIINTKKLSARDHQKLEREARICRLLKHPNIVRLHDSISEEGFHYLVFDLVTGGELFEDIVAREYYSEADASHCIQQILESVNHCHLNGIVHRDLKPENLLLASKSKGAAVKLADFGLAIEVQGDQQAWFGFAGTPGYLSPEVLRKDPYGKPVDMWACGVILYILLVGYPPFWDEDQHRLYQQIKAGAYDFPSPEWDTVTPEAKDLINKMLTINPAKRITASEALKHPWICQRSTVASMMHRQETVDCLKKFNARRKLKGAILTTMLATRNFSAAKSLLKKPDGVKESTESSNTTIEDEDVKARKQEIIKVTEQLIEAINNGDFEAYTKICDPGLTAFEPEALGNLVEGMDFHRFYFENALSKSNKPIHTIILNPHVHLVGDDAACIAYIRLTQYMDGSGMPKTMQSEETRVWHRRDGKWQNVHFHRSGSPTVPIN

| Structure (SMILES) | IC50 [nM] |
| --- | --- |
| COc1ccc(CN2CCOCC2)cc1Nc1ncc(-c2ccc(Cl)c(O[C@@H](C)Cn3cnnn3)c2)cn1 [Example 448, (S)-5-(3-((1-(1H-tetrazol-1-yl)propan-2-yl)oxy)-4-chlorophenyl)-N-(2-methoxy-5-(morpholinomethyl)phenyl)pyrimidin-2-amine] | 10 to 100 |
| Cc1cnc(N2CCC(N3CCOCC3)CC2)cc1Nc1ncc(-c2ccc(C#N)c(O[C@@H](C)Cn3cnnn3)c2)cn1 [Example 509, (S)-2-((1-(1H-tetrazol-1-yl)propan-2-yl)oxy)-4-(2-((5-methyl-2-(4-morpholinopiperidin-1-yl)pyridin-4-yl)amino)pyrimidin-5-yl)benzonitrile] | 10 to 100 |
| COc1cc2c(cc1Nc1ncc(-c3ccc(Cl)c(O[C@@H](C)Cn4cnnn4)c3)cn1)CCN(CC1COC1)C2 [Example 475, (S)-N-(5-(3-((1-(1H-tetrazol-1-yl)propan-2-yl)oxy)-4-chlorophenyl)pyrimidin-2-yl)-7-methoxy-2-(oxetan-3-ylmethyl)-1,2,3,4-tetrahydroisoquinolin-6-amine] | < 10 |
| COc1ccc(N2CCNCC2)cc1Nc1ncc(-c2ccc(Cl)c(O[C@@H](C)Cn3cnnn3)c2)cn1 [Example 533, (S)-5-(3-((1-(1H-tetrazol-1-yl)propan-2-yl)oxy)-4-chlorophenyl)-N-(2-methoxy-5-(piperazin-1-yl)phenyl)pyrimidin-2-amine] | < 10 |

same assay, conditions: CaMKIIδ binding assay; activity class per Table 2

| Structure (SMILES) | IC50 [nM] |
| --- | --- |
| C[C@@H](Cn1cnnn1)Oc1cc(-c2cnc(Nc3cn(C4(CO)CCC4)nc3OCC(F)(F)F)nc2)ccc1Cl [Example 914, (S)-(1-(4-((5-(3-((1-(1H-tetrazol-1-yl)propan-2-yl)oxy)-4-chlorophenyl)pyrimidin-2-yl)amino)-3-(2,2,2-trifluoroethoxy)-1H-pyrazol-1-yl)cyclobutyl)methanol] | < 10 |
| CC(Cn1cnnn1)Oc1cc(-c2cnc(Nc3cn(CC4(O)CCC(C)(O)CC4)nc3OCC(F)(F)F)nc2)ccc1Cl [Example 923, trans-1-((4-((5-(3-(((S)-1-(1H-tetrazol-1-yl)propan-2-yl)oxy)-4-chlorophenyl)pyrimidin-2-yl)amino)-3-(2,2,2-trifluoroethoxy)-1H-pyrazol-1-yl)methyl)-4-methylcyclohexane-1,4-diol] | < 10 |

same assay, conditions: Table 2; CaMKIIδ binding assay, activity given as class A/B/C

| Structure (SMILES) | IC50 [nM] |
| --- | --- |
| CCOC(=O)c1nn(CC)cc1Nc1ncc(-c2ccc(Cl)c(O[C@@H](C)Cn3cnnn3)c2)cn1 [Example 873, ethyl (S)-4-((5-(3-((1-(1H-tetrazol-1-yl)propan-2-yl)oxy)-4-chlorophenyl)pyrimidin-2-yl)amino)-1-ethyl-1H-pyrazole-3-carboxylate] | < 10 |
| C[C@@H](Cn1cnnn1)Oc1cc(-c2cnc(Nc3cn([C@H]4CC[C@H](N5CCOCC5)CC4)nc3OCC(F)(F)F)nc2)ccc1F [Example 813, 5-(3-(((S)-1-(1H-tetrazol-1-yl)propan-2-yl)oxy)-4-fluorophenyl)-N-(1-(trans-4-morpholinocyclohexyl)-3-(2,2,2-trifluoroethoxy)-1H-pyrazol-4-yl)pyrimidin-2-amine] | < 10 |
| C[C@@H](Cn1cnnn1)Oc1cc(-c2cnc(Nc3cn([C@@H]4C[C@H]5CC[C@@H](C4)N5C)nc3C(F)(F)F)nc2)ccc1Cl [Example 758, 5-(3-(((S)-1-(1H-tetrazol-1-yl)propan-2-yl)oxy)-4-chlorophenyl)-N-(1-((1R,3s,5S)-8-methyl-8-azabicyclo[3.2.1]octan-3-yl)-3-(trifluoromethyl)-1H-pyrazol-4-yl)pyrimidin-2-amine] | < 10 |
| C[C@@H](Cn1cnnn1)Oc1cc(-c2cnc(Nc3cn(Cc4nc5ccccc5c(=O)[nH]4)nc3C(F)(F)F)nc2)ccc1Cl [Example 741, (S)-2-((4-((5-(3-((1-(1H-tetrazol-1-yl)propan-2-yl)oxy)-4-chlorophenyl)pyrimidin-2-yl)amino)-3-(trifluoromethyl)-1H-pyrazol-1-yl)methyl)quinazolin-4(3H)-one] | 10 to 100 |
| CC(=O)NC(C)(C)Cn1cc(Nc2ncc(-c3ccc(Cl)c(O[C@@H](C)Cn4cnnn4)c3)cn2)c(C(F)(F)F)n1 [Example 862, (S)-N-(1-(4-((5-(3-((1-(1H-tetrazol-1-yl)propan-2-yl)oxy)-4-chlorophenyl)pyrimidin-2-yl)amino)-3-(trifluoromethyl)-1H-pyrazol-1-yl)-2-methylpropan-2-yl)acetamide] | 10 to 100 |
| C[C@@H](Cn1cnnn1)Oc1cc(-c2cnc(Nc3cn([C@H]4CC[C@@H](N5CCC5)CC4)nc3C(F)(F)F)nc2)ccc1C#N [Example 773, 2-(((S)-1-(1H-tetrazol-1-yl)propan-2-yl)oxy)-4-(2-((1-(cis-4-(azetidin-1-yl)cyclohexyl)-3-(trifluoromethyl)-1H-pyrazol-4-yl)amino)pyrimidin-5-yl)benzonitrile] | < 10 |
| CCn1ncc(Nc2ncc(-c3ccc(Cl)c(O[C@@H](C)Cn4cnnn4)c3)cn2)c1C(=O)O [Example 875, (S)-4-((5-(3-((1-(1H-tetrazol-1-yl)propan-2-yl)oxy)-4-chlorophenyl)pyrimidin-2-yl)amino)-1-ethyl-1H-pyrazole-5-carboxylic acid] | 10 to 100 |
| C[C@@H](Cn1cnnn1)Oc1cc(-c2cnc(Nc3cn([C@H]4CC[C@@H](N5CCOCC5)CC4)nc3OCC(F)F)nc2)ccc1Cl [Example 805, 5-(3-(((S)-1-(1H-tetrazol-1-yl)propan-2-yl)oxy)-4-chlorophenyl)-N-(3-(2,2-difluoroethoxy)-1-(cis-4-morpholinocyclohexyl)-1H-pyrazol-4-yl)pyrimidin-2-amine] | < 10 |

same assay, conditions: Table 2; activity class for CaMKIIδ

| Structure (SMILES) | IC50 [nM] |
| --- | --- |
| C[C@@H](Cn1cnnn1)Oc1cc(-c2cnc(Nc3cn(C4CCN(C5COC5)C4)nc3C(F)(F)F)nc2)ccc1Cl (stereo partly drawn) [Example 619, 5-(3-(((S)-1-(1H-tetrazol-1-yl)propan-2-yl)oxy)-4-chlorophenyl)-N-(1-(1-(oxetan-3-yl)pyrrolidin-3-yl)-3-(trifluoromethyl)-1H-pyrazol-4-yl)pyrimidin-2-amine] | 10 to 100 |
| C[C@@H](Cn1cnnn1)Oc1cc(-c2cnc(Nc3cn(CC4CCCN4C4COC4)nc3C(F)(F)F)nc2)ccc1Cl (stereo partly drawn) [Example 609, 5-(3-(((S)-1-(1H-tetrazol-1-yl)propan-2-yl)oxy)-4-chlorophenyl)-N-(1-((1-(oxetan-3-yl)pyrrolidin-2-yl)methyl)-3-(trifluoromethyl)-1H-pyrazol-4-yl)pyrimidin-2-amine] | 10 to 100 |
| CCOC(=O)C1CCC(n2cc(Nc3ncc(-c4ccc(Cl)c(O[C@@H](C)Cn5cnnn5)c4)cn3)c(C(F)(F)F)n2)CC1 (stereo partly drawn) [Example 603, ethyl (S)-4-(4-((5-(3-((1-(1H-tetrazol-1-yl)propan-2-yl)oxy)-4-chlorophenyl)pyrimidin-2-yl)amino)-3-(trifluoromethyl)-1H-pyrazol-1-yl)cyclohexane-1-carboxylate] | 10 to 100 |
| C[C@@H](Cn1cnnn1)Oc1cc(-c2cnc(Nc3cn(CCOC(F)(F)F)nc3C(F)(F)F)nc2)ccc1Cl [Example 727, (S)-5-(3-((1-(1H-tetrazol-1-yl)propan-2-yl)oxy)-4-chlorophenyl)-N-(1-(2-(trifluoromethoxy)ethyl)-3-(trifluoromethyl)-1H-pyrazol-4-yl)pyrimidin-2-amine] | 10 to 100 |
| COc1cc(N2CCOC(CN(C)C)C2)ccc1Nc1ncc(-c2ccc(Cl)c(O[C@@H](C)Cn3cnnn3)c2)cn1 (stereo partly drawn) [Example 688, 5-(3-(((S)-1-(1H-tetrazol-1-yl)propan-2-yl)oxy)-4-chlorophenyl)-N-(4-(2-((dimethylamino)methyl)morpholino)-2-methoxyphenyl)pyrimidin-2-amine] | < 10 |
